Source: patent US12617767B2, “Crystalline forms of somatostatin modulators” (Crinetics Pharmaceuticals, Inc., priority 2019, dated 2026)

Assay: Stability of XRPD pattern on drying
Assay type: physicochemical
Protocol: Short term slurries were carried out at two temperatures in 14 solvents. About 25 mg solid was added to a 2 mL vial followed by 0.70 mL of solvent. If all solids dissolved, more solid was added until a slurry was formed within reason. Slurries were stirred at constant temperature for four days (ambient temperature, 21-23° C.; or high temperature, 50° C.). After stirring for four days, solids were allowed to settle and were then recovered for XRPD analysis. XRPD analysis was performed on the wet cake, and if a new pattern was observed, the sample was dried in a vacuum oven at 50° C. for a minimum of 4 hours, then the dried sample was analyzed by XRPD.
Stability on Drying: A sample of Pattern B was prepared on an XRPD sample holder and analysed by XRPD to create a baseline. The disk was then left in a vacuum oven at 50° C. under static vacuum for 3 days. On the third day, the sample was removed from the oven and the “dry” pattern was recorded immediately.
Compound A⋅2MSA (Pattern A) was slurried in EtOH overnight at room temperature (ca. 16 hours). […] The bulk was dried in a vacuum oven at 50° C. under dynamic vacuum for 4.5 hours. The dried solids were removed from the oven and a “dry” XRPD analysis was collected.

XRPD pattern upon drying (solids from short term slurries, vacuum oven at 50° C., minimum of 4 hours, dimesylate): stable upon drying | XRPD pattern after drying (vacuum oven at 50° C. under static vacuum for 3 days): matched Pattern B
SMILES: CS(=O)(=O)O.CS(=O)(=O)O.N#Cc1cccc(-c2ccc3ncc(-c4cc(F)cc(F)c4)c(N4CCC(N)CC4)c3c2)c1O [Pattern B, 3-(4-(4-aminopiperidin-1-yl)-3-(3,5-difluorophenyl)quinolin-6-yl)-2-hydroxybenzonitrile dimesylate]
